Structures are written as SMILES. In brackets after ≈: the same amount, converted by molar mass. Positions of bridges follow the written chain, without caps; N, C: chain ends. Non-standard residues stand in square brackets, D forms with d. Residues, ends and D or L forms follow the SMILES beside them. *: point of attachment. Heptanoyl(5-Me) = CCC(C)CCCC(=O)*; Dab = NCC[C@H](N)C(=O)O

On the set-up of data set [1]: species or system SD rats. The settings on record: rat, in vivo, iv.
The next data set relates to Klebsiella pneumoniae. The data set is classed as cell-based. The text has this:
(§1) In line with the 2021 edition of the United States Clinical and Laboratory Standards Institute (CLSI) guidelines (https://clsi.org/), we employed the broth microdilution method to determine the MIC of the compounds against clinical Gram-negative bacilli. We tested 23 strains of Escherichia coli, including 12 carbapenem-sensitive and 11 drug-resistant strains, and 22 strains of Klebsiella pneumoniae, including 12 carbapenem-sensitive and 10 drug-resistant strains. Additionally, we assessed 20 strains of Acinetobacter baumannii, again including 10 carbapenem-sensitive and 10 drug-resistant strains, and 21 strains of Pseudomonas aeruginosa. Quality control strains used were Escherichia coli ATCC 25922 and Pseudomonas aeruginosa ATCC 27853 [20]. For the preparation of antimicrobial agents, we dissolved seven batches of the test drug in 3 mL of water and subsequently diluted it to a concentration of 500 mg/L. The control drug was prepared according to CLSI requirements. The antibacterial solutions were tested over a concentration range spanning from 0.015 mg/L to 32 mg/L. We utilized cation-adjusted Mueller–Hinton broth (CAMHB) from BD Company, with lot number 9324795.
(§2) Regarding bacterial inoculation, we selected fresh, pure bacterial colonies from Columbia blood agar using the direct colony suspension method, resulting in a turbidity of 0.5 McFarland units. This suspension was then appropriately diluted, yielding a final bacterial concentration of 10^5 CFU/mL. Culturing conditions involved incubation in ambient air at 35 ± 2 °C for a duration of 16–20 h. Results were interpreted in accordance with the European EUCAST breakpoint criteria, where PME sensitivity was defined as ≤2 mg/L and resistance as ≥4 mg/L. Criteria for assessing other tested drugs were provided by the party commissioning the study. The MIC value represented the minimum drug concentration necessary to inhibit bacterial growth. Data analysis was performed using WHONET 5.6 software for statistical evaluation of the drug susceptibility test results.

The test system of a further data set is Acinetobacter baumannii. It counts as cell-based.
Description: as §1, §2

A further data set relates to CD-1 mice. Kind of data set: Determination of maximum tolerated dose (MTD). The settings on record: male CD-1 mice, n = 3, tail vein, BID (q8h). It counts as in vivo. As for the experimental part: CD-1 mice, male, 7–8 weeks old, weighing 25–30 g, were purchased from Shanghai Lingchang Laboratory Animal Co. The mice were grouped into n = 3, and different doses of PME were injected into the tail vein of mice via BID (q8h). HA2 prescription (HA2-2.6, HA2-2 and HA2-1.5) and SOP prescription (SOP-2.6, SOP-2 and SOP-1.5) were used for MTD examination.

A further data set in a line: in vivo. The settings on record: SD, rat.
Data set [2] concerns A. Baumannii ATCC BAA-1605. The settings on record: 8 mpk BID q12h, tail vein; 24 h after infection.
Description: CD-1 mice (SPF grade, female, 7 weeks old, 27–29 g) were provided by Zhejiang Weitong Lihua Laboratory Animal Technology Co., Ltd. A. Baumannii ATCC BAA-1605 was provided by Nantong Wuxi Apptec Medical Technology Co., Ltd. (Nanjing, China). Experimental animals were admitted to Wuxi AppTec BSL-2 animal facility and subjected to an adaptation period of at least 3 to 4 days. Immunosuppressed mice with neutrophil deficiency were prepared by intraperitoneal injection of cyclophosphamide (150 mg/kg at day -4; 100 mg/kg at day -1). On day 0, the infected bacterial solution was inoculated by intramuscular injection, and 0.1 mL of the bacterial solution was inoculated into the right thigh of each mouse. At 2 h and 24 h after infection, the PME formulations were administered by tail vein according to the experimental protocol. Animals in the blank group were euthanized 2 h after infection. The right thighs of those mice were collected and homogenized. The diluent was cultured overnight and CFUs were counted the next day. Animals in the negative control group and other treatment groups were euthanized 24 h after infection. […] The diluent was cultured overnight and CFUs were counted the next day. […]
The dosages were calculated based on the weight of the mice, and different dosage levels were achieved by adjusting the drug volume accordingly.
The conditions of data set [3]: rat, in vivo.

Take `CCC(C)CCCC(=O)N[C@@H](CCN)C(=O)N[C@H](C(=O)N[C@@H](CCN)C(=O)N[C@H]1CCNC(=O)[C@H]([C@@H](C)O)NC(=O)[C@H](CCN)NC(=O)[C@H](CCN)NC(=O)[C@H](CC(C)C)NC(=O)[C@@H](CC(C)C)NC(=O)[C@H](CCN)NC1=O)[C@@H](C)O` (stereo partly drawn) ({Heptanoyl(5-Me)}-[Dab]T[Dab][Dab][Dab][dL]L[Dab][Dab]T; lactam 4-C): in data set [1], the gastric mucosal bleeding result was “showed gastric mucosal bleeding”. In the data set on Klebsiella pneumoniae, this compound came in with an MIC50 of 0.5 mg/L (≈ 0.433 µM). In the data set on Acinetobacter baumannii, this compound came in with an MIC50 of 0.5 mg/L (≈ 0.433 µM) and an MIC range of 0.5 to 1 mg/L. Besides, in the data set with CD-1 mice, the “MTD / tolerated dose” value came to 10 mpk. Moreover, in the data set “in vivo”, the area under the curve AUC(0-inf) amounted to 12.3 ± 2.12 µg·h/mL, the Cmax came to 10.3 ± 1.78 µg/mL, the mean residence time (MRT) turned out to be 1.63 ± 0.15 h and the Tmax came out at 4.8 min. Moreover, in “in vivo”, the Vd amounted to 0.404 ± 0.0545 L/kg, the clearance amounted to 0.25 ± 0.0468 L/h/kg and the half-life is 1.33 ± 0.05 h. Further, in data set [2], the “change of bacterial levels” value is listed as “did not increase bacterial levels”. For the same compound, the “intersection point between distribution phase and elimination phase” value in data set [3] is 0.5 h.

As usually defined, the MIC50 is an inhibitory concentration at the 50% level, which refers to growth in some studies and to a panel of isolates in others. Broadly, the AUC(0-inf) is total exposure, with the tail of the curve extrapolated. The low end stands for less exposure, the high end for more exposure. What is called Cmax is the maximum level reached in the sampled fluid or tissue. One may read the MRT as a mean duration of stay, worked out from the concentration-time curve. In general, Tmax refers to the time at which the peak concentration occurs. By Vd is commonly meant a proportionality between amount in the body and measured concentration, not a real space. Read a low Vd as confinement near the circulation. The term clearance denotes the volume of plasma or blood freed of the substance per unit of time. Read a low clearance as inefficient removal. As usually defined, the half-life is the time in which the quantity being followed falls by half. Read a high half-life as slow loss.

The values are drawn from publication PMC11769286, “Nanoformulation of Polymyxin E Through Complex Coacervation: A Pharmacokinetic Analysis” (Pharmaceutics, 2025).
